Laboratory results from ChEMBL document CHEMBL5518190, “Advancements in dual-target inhibitors of PI3K for tumor therapy: Clinical progress, development strategies, prospects” (Eur J Med Chem, 2024).
Converted amounts (≈) assume the structure as drawn. Each block holds one compound with its values, some of them ahead of it.

Columns and labels:
[1] = Antiproliferative activity against human A2780cis cells assessed as inhibition of cell growth incubated for 72 hrs by cell-titer glo assay; type: functional, cell-based
[2] = Cytotoxicity against human SK-ES cells assessed as reduction in cell viability incubated for 48 hrs by CellTiter-Blue reagent based […] assay; type: functional
[3] = target: T1, Phosphatidylinositol 4,5-bisphosphate 3-kinase catalytic subunit delta isoform (Homo sapiens, UniProt O00329); assay: Inhibition of PI3Kdelta (unknown origin) using PIP2 as substrate preincubated for 15 mins followed by substrate addition and measured after 1 hr by HTRF assay
T1 sequence (O00329 whole entry): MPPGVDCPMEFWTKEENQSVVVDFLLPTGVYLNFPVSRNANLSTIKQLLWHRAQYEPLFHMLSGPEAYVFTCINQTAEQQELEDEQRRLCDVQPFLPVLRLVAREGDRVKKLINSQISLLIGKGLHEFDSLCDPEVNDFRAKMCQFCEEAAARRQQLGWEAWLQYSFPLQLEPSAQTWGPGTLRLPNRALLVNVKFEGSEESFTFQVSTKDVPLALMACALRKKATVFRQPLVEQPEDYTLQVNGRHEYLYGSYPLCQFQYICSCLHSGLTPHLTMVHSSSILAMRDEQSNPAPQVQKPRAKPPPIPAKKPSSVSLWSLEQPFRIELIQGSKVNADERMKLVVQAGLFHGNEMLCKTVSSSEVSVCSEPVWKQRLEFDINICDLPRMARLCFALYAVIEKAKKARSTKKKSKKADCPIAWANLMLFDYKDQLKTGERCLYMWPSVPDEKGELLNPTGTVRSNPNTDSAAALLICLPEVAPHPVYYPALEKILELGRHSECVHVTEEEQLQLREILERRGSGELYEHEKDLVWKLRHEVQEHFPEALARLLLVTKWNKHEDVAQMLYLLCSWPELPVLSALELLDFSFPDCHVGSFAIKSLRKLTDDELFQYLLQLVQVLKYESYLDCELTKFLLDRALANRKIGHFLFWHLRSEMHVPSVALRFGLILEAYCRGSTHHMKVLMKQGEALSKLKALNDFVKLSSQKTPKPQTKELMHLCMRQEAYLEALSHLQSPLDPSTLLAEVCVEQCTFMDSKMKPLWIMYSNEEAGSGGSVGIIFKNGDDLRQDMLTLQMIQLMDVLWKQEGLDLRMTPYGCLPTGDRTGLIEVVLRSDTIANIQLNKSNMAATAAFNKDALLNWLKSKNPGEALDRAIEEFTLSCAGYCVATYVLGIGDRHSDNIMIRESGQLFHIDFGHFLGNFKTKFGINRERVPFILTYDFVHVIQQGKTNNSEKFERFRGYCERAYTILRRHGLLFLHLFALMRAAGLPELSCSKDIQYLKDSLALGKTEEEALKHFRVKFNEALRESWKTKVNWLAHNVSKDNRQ

[4] = target: T2, Phosphatidylinositol 4,5-bisphosphate 3-kinase catalytic subunit gamma isoform (Homo sapiens, UniProt P48736); assay: Inhibition of PI3Kgamma (unknown origin) using […] as substrate preincubated for 15 mins followed by substrate addition and measured after 1 hr by HTRF assay
[5] = target: T3, Phosphatidylinositol 4,5-bisphosphate 3-kinase catalytic subunit beta isoform (Homo sapiens, UniProt P42338); assay: Inhibition of PI3Kbeta (unknown origin) using […] as substrate preincubated for 15 mins followed by substrate addition and measured after 1 hr by HTRF assay
[6] = target: T4, Phosphatidylinositol 4,5-bisphosphate 3-kinase catalytic subunit alpha isoform (Homo sapiens, UniProt P42336); assay: Inhibition of PI3Kalpha (unknown origin) using PIP2 as substrate preincubated for 15 mins followed by substrate addition and measured after 1 hr by HTRF assay
[7] = target: Epidermal growth factor receptor (Homo sapiens, UniProt P00533); assay: Inhibition of EGFR (unknown origin)
A-375 = assay: Antiproliferative activity against human A-375 cells assessed as reduction in cell viability measured after 48 hrs by MTT assay; type: functional, cell-based; conditions: A-375, 48 h
[8] = target: T4, Phosphatidylinositol 4,5-bisphosphate 3-kinase catalytic subunit alpha isoform
[9] = target: T2, Phosphatidylinositol 4,5-bisphosphate 3-kinase catalytic subunit gamma isoform
Histone deacetylase 8 [10] = target: T5, Histone deacetylase 8 (Homo sapiens, UniProt Q9BY41); assay: Inhibition of HDAC8 (unknown origin) using Fluoro-Substrate Peptide as substrate by fluorescence assay
T5 sequence (Q9BY41 whole entry): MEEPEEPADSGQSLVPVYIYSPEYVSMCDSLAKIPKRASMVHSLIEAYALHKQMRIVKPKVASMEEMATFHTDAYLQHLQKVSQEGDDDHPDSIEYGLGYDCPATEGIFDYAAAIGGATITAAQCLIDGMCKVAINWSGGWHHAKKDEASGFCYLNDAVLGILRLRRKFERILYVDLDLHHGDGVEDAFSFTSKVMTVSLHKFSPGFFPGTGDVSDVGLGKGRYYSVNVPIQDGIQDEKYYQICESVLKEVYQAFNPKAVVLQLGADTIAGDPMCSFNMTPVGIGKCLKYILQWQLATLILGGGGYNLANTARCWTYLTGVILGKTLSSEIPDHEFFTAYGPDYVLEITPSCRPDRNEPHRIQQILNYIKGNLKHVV

Histone deacetylase 1 = Histone deacetylase 1 (Homo sapiens, UniProt Q13547); assay: Inhibition of HDAC1 (unknown origin) by fluorescence based assay
[11] = target: T4, Phosphatidylinositol 4,5-bisphosphate 3-kinase catalytic subunit alpha isoform; assay: Inhibition of full length wild type PI3Kalpha (unknown origin)
[12] = target: Serine/threonine-protein kinase mTOR (Homo sapiens, UniProt P42345)
[13] = target: Mitogen-activated protein kinase 1 (Homo sapiens) (UniProt P28482); assay: Inhibition of ERK2 (unknown origin) at 1 uM relative to control by ADP-Glo assay
[14] = target: T4, Phosphatidylinositol 4,5-bisphosphate 3-kinase catalytic subunit alpha isoform; assay: Inhibition of PI3Kalpha (unknown origin) at 1 uM by kinase-glo luminescent assay relative to control
B16 = assay: Antiproliferative activity against mouse B16 cells assessed as reduction in cell viability measured for 48 hrs by MTT assay; type: functional, cell-based; conditions: B16, 48 h
[15] = target: T3, Phosphatidylinositol 4,5-bisphosphate 3-kinase catalytic subunit beta isoform; assay: Inhibition of human recombinant PI3Kbeta
Histone deacetylase 8 [16] = target: T5, Histone deacetylase 8; assay: Inhibition of HDAC8 (unknown origin) by fluorescence based assay

T4 sequence (P42336 whole entry, canonical isoform): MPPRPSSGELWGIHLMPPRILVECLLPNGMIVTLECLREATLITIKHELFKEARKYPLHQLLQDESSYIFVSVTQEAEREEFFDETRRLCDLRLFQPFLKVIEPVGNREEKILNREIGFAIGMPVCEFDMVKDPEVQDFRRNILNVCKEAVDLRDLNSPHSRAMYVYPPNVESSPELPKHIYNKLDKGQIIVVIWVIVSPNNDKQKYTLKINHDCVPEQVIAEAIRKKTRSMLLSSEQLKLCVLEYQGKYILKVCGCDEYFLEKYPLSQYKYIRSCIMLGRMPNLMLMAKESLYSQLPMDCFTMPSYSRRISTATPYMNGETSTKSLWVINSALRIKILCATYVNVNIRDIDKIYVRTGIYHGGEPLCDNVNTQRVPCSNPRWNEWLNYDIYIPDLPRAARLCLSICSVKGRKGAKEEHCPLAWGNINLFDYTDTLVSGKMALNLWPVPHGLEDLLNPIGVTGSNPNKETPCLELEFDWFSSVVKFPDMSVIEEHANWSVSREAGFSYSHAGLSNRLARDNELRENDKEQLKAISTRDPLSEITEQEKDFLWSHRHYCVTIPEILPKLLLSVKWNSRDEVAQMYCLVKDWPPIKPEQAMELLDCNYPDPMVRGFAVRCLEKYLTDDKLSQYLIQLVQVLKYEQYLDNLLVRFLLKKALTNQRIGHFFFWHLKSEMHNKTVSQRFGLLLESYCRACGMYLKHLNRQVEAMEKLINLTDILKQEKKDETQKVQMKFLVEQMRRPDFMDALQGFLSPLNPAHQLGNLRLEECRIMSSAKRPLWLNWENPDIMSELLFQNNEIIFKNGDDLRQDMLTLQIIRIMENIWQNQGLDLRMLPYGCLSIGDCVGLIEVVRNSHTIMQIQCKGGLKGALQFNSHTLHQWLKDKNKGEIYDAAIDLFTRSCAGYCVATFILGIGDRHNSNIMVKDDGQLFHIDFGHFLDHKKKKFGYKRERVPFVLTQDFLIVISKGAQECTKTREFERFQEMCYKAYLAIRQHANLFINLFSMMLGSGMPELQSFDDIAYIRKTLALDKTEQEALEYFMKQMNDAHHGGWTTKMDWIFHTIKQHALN
T3 sequence (P42338 whole entry, canonical isoform): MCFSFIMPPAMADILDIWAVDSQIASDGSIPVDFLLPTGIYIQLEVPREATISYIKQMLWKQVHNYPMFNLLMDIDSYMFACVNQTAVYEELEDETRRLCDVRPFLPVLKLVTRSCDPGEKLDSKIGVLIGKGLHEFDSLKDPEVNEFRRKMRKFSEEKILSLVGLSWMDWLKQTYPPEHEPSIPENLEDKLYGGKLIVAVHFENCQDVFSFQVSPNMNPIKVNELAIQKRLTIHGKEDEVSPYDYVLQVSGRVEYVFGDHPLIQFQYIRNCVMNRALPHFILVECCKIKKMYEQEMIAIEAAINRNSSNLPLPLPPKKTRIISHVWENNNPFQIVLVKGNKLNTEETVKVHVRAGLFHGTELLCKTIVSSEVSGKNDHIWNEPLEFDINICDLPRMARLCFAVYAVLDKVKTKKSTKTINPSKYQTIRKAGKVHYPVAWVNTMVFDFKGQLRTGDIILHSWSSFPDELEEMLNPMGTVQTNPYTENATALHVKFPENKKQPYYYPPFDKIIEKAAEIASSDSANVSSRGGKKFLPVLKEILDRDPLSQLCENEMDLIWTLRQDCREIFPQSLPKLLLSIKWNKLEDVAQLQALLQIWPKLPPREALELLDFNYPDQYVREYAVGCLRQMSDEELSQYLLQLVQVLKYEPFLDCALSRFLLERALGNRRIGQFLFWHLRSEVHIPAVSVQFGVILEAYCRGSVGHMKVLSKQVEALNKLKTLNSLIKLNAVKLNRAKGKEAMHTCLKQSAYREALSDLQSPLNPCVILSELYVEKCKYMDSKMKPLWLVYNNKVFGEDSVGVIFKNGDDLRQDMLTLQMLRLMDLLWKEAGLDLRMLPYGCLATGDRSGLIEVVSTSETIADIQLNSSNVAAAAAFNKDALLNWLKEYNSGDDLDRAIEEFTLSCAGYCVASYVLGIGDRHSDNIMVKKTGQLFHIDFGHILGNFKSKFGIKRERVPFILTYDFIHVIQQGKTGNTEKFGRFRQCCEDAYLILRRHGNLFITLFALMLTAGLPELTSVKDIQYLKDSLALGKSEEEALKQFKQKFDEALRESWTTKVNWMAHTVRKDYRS
T2 sequence (P48736 whole entry, canonical isoform): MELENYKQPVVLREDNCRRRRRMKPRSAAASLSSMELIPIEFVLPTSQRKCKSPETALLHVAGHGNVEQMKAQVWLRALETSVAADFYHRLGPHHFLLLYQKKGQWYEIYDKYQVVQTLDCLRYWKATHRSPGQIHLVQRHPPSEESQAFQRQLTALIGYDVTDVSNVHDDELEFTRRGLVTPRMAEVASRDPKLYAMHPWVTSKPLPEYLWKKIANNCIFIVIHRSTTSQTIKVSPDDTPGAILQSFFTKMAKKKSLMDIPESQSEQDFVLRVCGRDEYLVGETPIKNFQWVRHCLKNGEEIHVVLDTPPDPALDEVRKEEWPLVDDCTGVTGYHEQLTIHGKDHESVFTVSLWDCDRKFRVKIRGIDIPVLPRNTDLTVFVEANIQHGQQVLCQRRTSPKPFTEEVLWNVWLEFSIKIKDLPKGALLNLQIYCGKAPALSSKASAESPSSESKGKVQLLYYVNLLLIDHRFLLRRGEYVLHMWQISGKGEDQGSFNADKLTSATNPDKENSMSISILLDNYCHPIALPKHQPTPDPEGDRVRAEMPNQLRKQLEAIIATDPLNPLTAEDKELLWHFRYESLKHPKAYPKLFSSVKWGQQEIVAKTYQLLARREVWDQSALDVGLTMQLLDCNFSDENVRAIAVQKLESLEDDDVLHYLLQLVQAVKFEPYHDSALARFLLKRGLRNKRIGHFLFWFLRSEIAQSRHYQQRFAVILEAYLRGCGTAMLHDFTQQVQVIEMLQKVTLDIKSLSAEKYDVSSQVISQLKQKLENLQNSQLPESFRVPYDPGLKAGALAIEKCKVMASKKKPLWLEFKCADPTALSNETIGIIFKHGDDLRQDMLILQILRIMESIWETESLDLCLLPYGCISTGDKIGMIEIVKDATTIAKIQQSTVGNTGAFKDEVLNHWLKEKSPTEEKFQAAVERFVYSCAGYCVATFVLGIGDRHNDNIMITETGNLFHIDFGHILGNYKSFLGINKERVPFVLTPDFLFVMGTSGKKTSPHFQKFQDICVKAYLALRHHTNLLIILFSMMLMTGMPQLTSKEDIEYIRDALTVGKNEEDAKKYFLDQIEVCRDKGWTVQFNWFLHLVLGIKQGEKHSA
Chain of Epidermal growth factor receptor (P00533 whole entry): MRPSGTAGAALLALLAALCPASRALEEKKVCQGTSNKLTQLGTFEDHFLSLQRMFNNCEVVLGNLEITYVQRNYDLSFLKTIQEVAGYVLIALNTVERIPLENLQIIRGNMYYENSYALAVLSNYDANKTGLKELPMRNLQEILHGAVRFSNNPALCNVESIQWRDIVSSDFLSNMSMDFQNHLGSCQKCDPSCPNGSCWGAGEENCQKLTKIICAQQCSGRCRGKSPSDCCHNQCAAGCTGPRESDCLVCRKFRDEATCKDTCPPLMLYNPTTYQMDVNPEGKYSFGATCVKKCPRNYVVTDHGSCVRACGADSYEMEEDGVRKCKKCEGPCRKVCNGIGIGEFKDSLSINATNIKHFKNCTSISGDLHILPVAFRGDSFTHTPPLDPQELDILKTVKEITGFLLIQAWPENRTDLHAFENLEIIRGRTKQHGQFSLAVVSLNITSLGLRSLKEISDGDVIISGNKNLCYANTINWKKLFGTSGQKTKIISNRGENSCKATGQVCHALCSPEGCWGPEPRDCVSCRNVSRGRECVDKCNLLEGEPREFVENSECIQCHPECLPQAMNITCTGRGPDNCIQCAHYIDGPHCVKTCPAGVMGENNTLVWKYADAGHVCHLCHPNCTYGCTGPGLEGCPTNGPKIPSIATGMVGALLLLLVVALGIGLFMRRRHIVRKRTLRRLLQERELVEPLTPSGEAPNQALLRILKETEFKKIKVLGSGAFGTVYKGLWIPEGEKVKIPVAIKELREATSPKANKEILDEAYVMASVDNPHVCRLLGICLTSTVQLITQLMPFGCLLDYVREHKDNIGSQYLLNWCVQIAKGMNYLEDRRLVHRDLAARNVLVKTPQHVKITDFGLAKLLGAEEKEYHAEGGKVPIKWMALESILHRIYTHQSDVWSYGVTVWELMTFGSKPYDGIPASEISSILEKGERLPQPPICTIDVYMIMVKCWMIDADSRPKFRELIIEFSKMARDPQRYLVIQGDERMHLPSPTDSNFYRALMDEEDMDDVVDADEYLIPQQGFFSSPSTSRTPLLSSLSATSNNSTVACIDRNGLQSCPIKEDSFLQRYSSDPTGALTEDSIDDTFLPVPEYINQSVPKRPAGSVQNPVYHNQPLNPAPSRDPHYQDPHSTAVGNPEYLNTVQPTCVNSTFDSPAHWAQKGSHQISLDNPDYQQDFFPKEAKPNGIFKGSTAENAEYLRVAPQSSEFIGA
Chain of Mitogen-activated protein kinase 1 (Homo sapiens) (P28482 whole entry, canonical isoform): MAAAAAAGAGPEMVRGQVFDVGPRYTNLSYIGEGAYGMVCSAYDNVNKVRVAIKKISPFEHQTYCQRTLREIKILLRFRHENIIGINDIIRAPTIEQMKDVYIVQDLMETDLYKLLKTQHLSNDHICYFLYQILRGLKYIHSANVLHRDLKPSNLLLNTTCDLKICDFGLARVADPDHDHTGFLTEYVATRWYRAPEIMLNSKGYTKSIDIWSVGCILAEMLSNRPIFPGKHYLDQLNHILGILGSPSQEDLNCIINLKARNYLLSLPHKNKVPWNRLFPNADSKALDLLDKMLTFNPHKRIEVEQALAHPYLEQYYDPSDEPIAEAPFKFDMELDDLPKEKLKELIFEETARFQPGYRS

IC50 [8]: 2.98 nM | IC50 [9]: 25 nM | IC50 (Histone deacetylase 8 [10]): 153 nM
Structure (SMILES): COc1c(OCCCCCC(=O)NO)ccc2c1N=C(NC(=O)c1ccccc1)N1CCN=C21

IC50 (Histone deacetylase 1): 2.5 nM | IC50 [11]: 27300 nM
Structure (SMILES): CC(C)[C@H]1NC(=O)C[C@H]2/C=C/CCSSC[C@@H](NC1=O)C(=O)N[C@H](Cc1ccccc1)C(=O)NCC(=O)O2

IC50 [12]: 150 nM
Structure (SMILES): CCn1c(=O)c(-c2cc[nH]n2)cc2c(C)nc(N)nc21 [VOXTALISIB]

IC50 [15]: 5 nM
Structure (SMILES): O=C(Nc1ncc2ncc(-c3cn[nH]c3)cc2n1)NC1CCCC1

IC50 (Histone deacetylase 8 [16]): 66.5 nM
Structure (SMILES): O=C(NO)c1ccc(/C=N/NC(=O)c2cc(N3CCOCC3)nc(-c3cccc4[nH]ncc34)n2)cc1

The next lines start with the compound.

Structure (SMILES): CC(C)OC(=O)N1CCC(Nc2ncnc3ccc(-c4cnc(Cl)c(NS(=O)(=O)c5ccc(F)cc5F)c4)nc23)CC1
IC50 [1]: 213 nM | IC50 [2]: 99.5 nM

Structure (SMILES): CCOC(=O)c1nn(-c2ccccc2)c(=O)c2c(N)c(C#N)c(-c3cccs3)cc12
IC50 [3]: 7470 nM | IC50 [4]: 30000 nM | IC50 [5]: 32700 nM | IC50 [6]: 10500 nM | IC50 [7]: 114000 nM

Structure (SMILES): CC(C)c1cc(C(=O)N2CCc3c(sc4nc(-c5cccnc5)nc(N5CCOCC5)c34)C2)c(O)cc1O
IC50 (A-375): 2.29 µg/mL (≈ 4.31 µM)

Structure (SMILES): Cn1cc(-c2n[nH]c3nc(NC(=O)NC4CCCC4)ncc23)cn1
inhibition [13]: 79.5% | inhibition [14]: 4%

Structure (SMILES): CC(C)c1cc(C(=O)N2CCc3c(sc4ncnc(N5CCOCC5)c34)C2)c(O)cc1O
IC50 (B16): 0.47 µg/mL (≈ 1.03 µM)
